From patent US9446039B2, “Aminoheteroaryl compounds as MTH1 inhibitors” (CEMM—FORSCHUNGSZENTRUM FÜR MOLEKULARE MEDIZIN GMBH, priority 2012, dated 2016)

Key:
Assay type in all cases: binding
[1] = target: T1, SW480 colon carcinoma cells lysate proteins (Homo sapiens, UniProt O00232); settings: PreyGene PSMD12
T1 sequence (O00232 1-456): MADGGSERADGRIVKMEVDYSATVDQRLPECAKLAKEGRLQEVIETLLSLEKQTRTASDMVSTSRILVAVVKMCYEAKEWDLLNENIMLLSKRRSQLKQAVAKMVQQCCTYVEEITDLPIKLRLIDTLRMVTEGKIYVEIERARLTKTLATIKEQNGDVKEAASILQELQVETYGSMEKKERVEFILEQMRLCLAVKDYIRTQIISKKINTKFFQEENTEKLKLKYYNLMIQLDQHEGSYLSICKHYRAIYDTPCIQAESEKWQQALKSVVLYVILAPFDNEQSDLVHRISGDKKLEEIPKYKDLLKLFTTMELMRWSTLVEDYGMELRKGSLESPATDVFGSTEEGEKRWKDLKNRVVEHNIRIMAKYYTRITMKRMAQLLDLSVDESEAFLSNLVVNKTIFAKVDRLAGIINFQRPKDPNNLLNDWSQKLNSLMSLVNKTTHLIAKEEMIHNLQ

[2] = target: SW480 colon carcinoma cells lysate proteins (Homo sapiens, UniProt O14602); settings: PreyGene EIF1AY
[3] = target: SW480 colon carcinoma cells lysate proteins (Homo sapiens, UniProt P07858); settings: PreyGene CTSB
[4] = target: SW480 colon carcinoma cells lysate proteins (Homo sapiens, UniProt P37802); settings: PreyGene TAGLN2
[5] = target: T2, SW480 colon carcinoma cells lysate proteins (Homo sapiens, UniProt P40925); settings: PreyGene MDH1
T2 sequence (P40925 1-334): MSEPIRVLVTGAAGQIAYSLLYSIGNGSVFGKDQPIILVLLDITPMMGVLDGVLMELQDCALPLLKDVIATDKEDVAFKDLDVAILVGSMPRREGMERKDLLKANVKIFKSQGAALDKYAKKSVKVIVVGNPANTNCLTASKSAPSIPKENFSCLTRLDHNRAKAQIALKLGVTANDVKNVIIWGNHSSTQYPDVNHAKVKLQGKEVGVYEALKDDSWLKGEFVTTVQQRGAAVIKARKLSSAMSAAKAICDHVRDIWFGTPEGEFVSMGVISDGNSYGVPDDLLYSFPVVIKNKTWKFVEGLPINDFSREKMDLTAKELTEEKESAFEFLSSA

[6] = target: SW480 colon carcinoma cells lysate proteins (Homo sapiens, UniProt P61204); settings: PreyGene ARF3
[7] = target: SW480 colon carcinoma cells lysate proteins (Homo sapiens, UniProt Q00610); settings: PreyGene CLTC; SW480 cells
[8] = target: SW480 colon carcinoma cells lysate proteins (Homo sapiens, UniProt Q13561); settings: PreyGene DCTN2
[9] = target: SW480 colon carcinoma cells lysate proteins (Homo sapiens, UniProt Q14152); settings: PreyGene EIF3A; SW480 cells
[10] = target: SW480 colon carcinoma cells lysate proteins (Homo sapiens, UniProt Q15365); settings: PreyGene PCBP1; SW480 cells
[11] = target: T3, SW480 colon carcinoma cells lysate proteins (Homo sapiens, UniProt Q16543); settings: PreyGene CDC37
T3 sequence (Q16543 1-378): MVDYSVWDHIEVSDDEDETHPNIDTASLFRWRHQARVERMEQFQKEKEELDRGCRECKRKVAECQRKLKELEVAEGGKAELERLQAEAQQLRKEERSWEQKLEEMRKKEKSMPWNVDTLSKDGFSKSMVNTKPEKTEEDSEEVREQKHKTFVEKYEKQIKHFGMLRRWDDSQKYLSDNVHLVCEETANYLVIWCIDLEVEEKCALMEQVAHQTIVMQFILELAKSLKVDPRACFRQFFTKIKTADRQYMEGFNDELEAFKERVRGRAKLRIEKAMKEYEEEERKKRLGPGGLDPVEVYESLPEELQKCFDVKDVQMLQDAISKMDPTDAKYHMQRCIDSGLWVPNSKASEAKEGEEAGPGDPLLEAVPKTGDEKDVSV

[12] = target: SW480 colon carcinoma cells lysate proteins (Homo sapiens, UniProt Q9NZI8); settings: PreyGene IGF2BP1; SW480 cells
SW480 colon carcinoma cells lysate proteins (Homo sapiens, UniProt Q9NZI8), sequence (Q9NZI8 whole entry): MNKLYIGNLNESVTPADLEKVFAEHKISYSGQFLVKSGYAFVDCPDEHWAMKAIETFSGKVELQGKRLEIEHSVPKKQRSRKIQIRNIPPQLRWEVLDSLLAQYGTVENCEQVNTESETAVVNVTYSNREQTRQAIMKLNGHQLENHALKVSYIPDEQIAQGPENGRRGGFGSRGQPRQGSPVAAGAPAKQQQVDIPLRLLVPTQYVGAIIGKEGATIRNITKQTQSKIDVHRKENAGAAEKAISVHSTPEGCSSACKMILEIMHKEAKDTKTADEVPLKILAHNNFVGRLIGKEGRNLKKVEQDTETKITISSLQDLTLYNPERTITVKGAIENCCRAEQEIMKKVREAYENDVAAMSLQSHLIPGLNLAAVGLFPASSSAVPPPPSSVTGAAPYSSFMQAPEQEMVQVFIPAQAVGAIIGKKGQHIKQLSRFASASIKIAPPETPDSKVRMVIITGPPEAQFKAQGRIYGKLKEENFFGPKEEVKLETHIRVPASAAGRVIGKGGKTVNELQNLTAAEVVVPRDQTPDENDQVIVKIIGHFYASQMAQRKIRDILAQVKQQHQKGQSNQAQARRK

SW480 colon carcinoma cells lysate proteins (Homo sapiens, UniProt P37802), sequence (P37802 whole entry): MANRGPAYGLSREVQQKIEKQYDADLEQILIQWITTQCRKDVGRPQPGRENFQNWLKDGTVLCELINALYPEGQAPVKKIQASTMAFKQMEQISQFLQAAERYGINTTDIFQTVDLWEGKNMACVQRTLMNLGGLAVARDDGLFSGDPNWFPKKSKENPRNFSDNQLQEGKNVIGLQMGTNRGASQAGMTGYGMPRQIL
SW480 colon carcinoma cells lysate proteins (Homo sapiens, UniProt P61204), sequence (P61204 whole entry): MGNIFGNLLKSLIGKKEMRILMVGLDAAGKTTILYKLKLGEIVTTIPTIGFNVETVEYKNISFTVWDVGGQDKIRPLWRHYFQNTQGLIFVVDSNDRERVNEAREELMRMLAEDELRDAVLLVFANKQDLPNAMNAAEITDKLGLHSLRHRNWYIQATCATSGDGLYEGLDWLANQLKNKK
SW480 colon carcinoma cells lysate proteins (Homo sapiens, UniProt Q14152), sequence (Q14152 whole entry): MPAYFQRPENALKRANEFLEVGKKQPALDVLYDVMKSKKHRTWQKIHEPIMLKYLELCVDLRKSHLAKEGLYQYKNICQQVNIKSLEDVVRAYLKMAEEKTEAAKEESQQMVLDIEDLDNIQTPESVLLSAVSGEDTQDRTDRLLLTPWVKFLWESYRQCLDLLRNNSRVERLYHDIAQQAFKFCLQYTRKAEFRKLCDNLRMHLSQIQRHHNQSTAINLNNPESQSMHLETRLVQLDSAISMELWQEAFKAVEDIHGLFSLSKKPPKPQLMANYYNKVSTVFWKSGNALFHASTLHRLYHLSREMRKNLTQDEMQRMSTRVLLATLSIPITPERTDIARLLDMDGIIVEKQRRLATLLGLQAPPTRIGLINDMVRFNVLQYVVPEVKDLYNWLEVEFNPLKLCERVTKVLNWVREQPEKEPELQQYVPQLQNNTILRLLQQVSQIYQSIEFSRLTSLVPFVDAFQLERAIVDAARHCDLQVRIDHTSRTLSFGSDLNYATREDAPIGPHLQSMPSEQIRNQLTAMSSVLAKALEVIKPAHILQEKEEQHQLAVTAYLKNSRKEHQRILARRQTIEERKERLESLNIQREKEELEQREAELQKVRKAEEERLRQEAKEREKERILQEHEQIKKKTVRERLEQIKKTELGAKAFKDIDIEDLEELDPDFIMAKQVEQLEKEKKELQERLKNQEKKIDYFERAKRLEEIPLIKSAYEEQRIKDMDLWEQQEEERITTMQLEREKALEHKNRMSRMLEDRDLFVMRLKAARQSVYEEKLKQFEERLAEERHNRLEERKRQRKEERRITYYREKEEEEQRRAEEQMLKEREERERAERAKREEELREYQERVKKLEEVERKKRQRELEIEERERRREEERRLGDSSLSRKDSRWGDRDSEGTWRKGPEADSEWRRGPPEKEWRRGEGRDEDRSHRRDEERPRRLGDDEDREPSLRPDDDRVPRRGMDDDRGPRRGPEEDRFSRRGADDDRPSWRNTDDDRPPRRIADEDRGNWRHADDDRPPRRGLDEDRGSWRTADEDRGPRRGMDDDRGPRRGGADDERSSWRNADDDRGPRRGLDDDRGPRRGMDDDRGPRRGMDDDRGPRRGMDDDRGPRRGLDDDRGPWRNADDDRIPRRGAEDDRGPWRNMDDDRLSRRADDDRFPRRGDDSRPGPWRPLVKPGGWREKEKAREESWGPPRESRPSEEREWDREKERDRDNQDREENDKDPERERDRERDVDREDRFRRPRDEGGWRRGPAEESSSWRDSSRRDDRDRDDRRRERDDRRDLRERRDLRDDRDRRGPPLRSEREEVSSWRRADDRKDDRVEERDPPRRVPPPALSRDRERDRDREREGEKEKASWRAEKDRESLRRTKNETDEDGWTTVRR
SW480 colon carcinoma cells lysate proteins (Homo sapiens, UniProt Q15365), sequence (Q15365 whole entry): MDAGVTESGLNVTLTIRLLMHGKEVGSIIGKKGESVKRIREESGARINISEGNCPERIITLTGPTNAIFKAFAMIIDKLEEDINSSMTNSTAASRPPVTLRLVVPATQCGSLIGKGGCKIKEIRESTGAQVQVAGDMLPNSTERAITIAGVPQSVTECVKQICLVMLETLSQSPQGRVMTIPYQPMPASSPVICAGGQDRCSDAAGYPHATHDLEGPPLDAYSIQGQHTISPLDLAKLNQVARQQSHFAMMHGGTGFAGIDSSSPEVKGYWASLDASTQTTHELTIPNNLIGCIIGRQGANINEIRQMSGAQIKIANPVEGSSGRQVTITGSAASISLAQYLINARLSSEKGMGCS
SW480 colon carcinoma cells lysate proteins (Homo sapiens, UniProt O14602), sequence (O14602 whole entry): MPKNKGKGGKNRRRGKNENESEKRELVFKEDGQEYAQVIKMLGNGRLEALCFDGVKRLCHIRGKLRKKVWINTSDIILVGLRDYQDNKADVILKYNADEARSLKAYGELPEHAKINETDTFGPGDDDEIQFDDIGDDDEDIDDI
SW480 colon carcinoma cells lysate proteins (Homo sapiens, UniProt Q00610), sequence (Q00610 whole entry): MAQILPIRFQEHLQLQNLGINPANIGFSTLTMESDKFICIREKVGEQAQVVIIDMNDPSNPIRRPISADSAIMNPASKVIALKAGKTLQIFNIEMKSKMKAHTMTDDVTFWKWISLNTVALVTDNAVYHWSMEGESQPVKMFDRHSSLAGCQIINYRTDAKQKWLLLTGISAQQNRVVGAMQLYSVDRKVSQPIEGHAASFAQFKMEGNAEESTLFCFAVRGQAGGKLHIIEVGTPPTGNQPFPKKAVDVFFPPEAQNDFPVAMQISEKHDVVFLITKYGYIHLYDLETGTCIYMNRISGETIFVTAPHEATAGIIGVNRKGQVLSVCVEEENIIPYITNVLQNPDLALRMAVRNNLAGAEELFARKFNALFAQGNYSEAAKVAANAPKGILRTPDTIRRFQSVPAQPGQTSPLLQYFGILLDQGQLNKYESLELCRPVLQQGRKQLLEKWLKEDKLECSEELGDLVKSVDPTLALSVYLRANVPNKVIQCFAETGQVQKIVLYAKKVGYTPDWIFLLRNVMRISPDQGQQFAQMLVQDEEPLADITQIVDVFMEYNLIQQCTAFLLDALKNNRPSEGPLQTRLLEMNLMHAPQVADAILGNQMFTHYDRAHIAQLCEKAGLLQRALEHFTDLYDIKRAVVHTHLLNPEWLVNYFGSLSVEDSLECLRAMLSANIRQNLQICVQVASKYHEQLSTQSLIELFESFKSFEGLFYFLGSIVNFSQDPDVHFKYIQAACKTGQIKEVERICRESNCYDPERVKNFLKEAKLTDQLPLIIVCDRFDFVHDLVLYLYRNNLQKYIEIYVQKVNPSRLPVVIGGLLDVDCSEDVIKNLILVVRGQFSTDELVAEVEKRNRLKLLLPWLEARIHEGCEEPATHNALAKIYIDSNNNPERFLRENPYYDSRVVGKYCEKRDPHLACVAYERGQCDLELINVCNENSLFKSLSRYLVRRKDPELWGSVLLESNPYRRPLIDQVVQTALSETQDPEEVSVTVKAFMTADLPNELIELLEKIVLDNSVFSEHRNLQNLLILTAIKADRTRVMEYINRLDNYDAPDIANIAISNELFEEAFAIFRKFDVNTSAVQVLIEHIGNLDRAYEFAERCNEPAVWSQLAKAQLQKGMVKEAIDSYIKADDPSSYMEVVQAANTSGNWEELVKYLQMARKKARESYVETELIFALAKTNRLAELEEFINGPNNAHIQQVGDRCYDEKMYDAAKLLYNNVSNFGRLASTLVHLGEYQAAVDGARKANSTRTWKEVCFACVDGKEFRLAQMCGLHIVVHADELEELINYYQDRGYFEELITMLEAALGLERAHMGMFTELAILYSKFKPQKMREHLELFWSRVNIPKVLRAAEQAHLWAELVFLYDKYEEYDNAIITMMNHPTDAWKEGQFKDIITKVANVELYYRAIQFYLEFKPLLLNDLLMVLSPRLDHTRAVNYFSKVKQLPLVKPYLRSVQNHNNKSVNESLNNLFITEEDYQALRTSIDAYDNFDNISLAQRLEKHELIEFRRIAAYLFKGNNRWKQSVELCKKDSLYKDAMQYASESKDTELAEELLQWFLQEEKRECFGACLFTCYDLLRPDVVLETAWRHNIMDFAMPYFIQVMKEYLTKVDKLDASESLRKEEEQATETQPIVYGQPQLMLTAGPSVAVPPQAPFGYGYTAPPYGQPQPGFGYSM
SW480 colon carcinoma cells lysate proteins (Homo sapiens, UniProt Q13561), sequence (Q13561 whole entry): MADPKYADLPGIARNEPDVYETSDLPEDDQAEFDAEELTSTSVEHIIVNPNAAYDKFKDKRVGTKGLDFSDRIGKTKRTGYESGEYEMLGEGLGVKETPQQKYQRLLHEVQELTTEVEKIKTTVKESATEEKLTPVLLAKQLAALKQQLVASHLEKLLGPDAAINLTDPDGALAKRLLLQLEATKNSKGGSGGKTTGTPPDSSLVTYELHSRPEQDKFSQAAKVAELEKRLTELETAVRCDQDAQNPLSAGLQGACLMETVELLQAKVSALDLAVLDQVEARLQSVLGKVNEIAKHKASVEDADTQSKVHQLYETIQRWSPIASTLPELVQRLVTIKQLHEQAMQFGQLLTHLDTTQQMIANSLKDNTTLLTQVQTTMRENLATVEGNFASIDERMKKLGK

C[C@H](Oc1cc(-c2cnn(C3CCNCC3)c2)cnc1N)c1c(Cl)ccc(F)c1Cl [(5)-crizotinib]
AvgP [1]: 0.35
SC.Exp. 1-1 [1]: 2
SC.Exp. 1-2 [1]: 2
SC.Exp. 2-1 [1]: 0
SC.Exp. 2-2 [1]: 0
Sum (SC.Exp.) [1]: 4
AvgP [2]: 0.3949
SC.Exp. 1-1 [2]: 2
SC.Exp. 1-2 [2]: 3
SC.Exp. 2-1 [2]: 0
SC.Exp. 2-2 [2]: 0
Sum (SC.Exp.) [2]: 5
AvgP [3]: 0.1845
SC.Exp. 1-1 [3]: 0
SC.Exp. 1-2 [3]: 2
SC.Exp. 2-1 [3]: 0
SC.Exp. 2-2 [3]: 0
Sum (SC.Exp.) [3]: 2
AvgP [4]: 0.1795
SC.Exp. 1-1 [4]: 6
SC.Exp. 1-2 [4]: 5
SC.Exp. 2-1 [4]: 0
SC.Exp. 2-2 [4]: 0
Sum (SC.Exp.) [4]: 11
AvgP [5]: 0.4615
SC.Exp. 1-1 [5]: 5
SC.Exp. 1-2 [5]: 6
SC.Exp. 2-1 [5]: 0
SC.Exp. 2-2 [5]: 0
Sum (SC.Exp.) [5]: 11
AvgP [6]: 0.1881
SC.Exp. 1-1 [6]: 2
SC.Exp. 1-2 [6]: 0
SC.Exp. 2-1 [6]: 0
SC.Exp. 2-2 [6]: 0
Sum (SC.Exp.) [6]: 2
AvgP [7]: 0
SC.Exp. 1-1 [7]: 16
SC.Exp. 1-2 [7]: 14
SC.Exp. 2-1 [7]: 5
SC.Exp. 2-2 [7]: 7
SC.Exp. Sum [7]: 42
AvgP [8]: 0.2964
SC.Exp. 1-1 [8]: 2
SC.Exp. 1-2 [8]: 3
SC.Exp. 2-1 [8]: 0
SC.Exp. 2-2 [8]: 0
Sum (SC.Exp.) [8]: 5
AvgP [9]: 0
SC.Exp. 1-1 [9]: 9
SC.Exp. 1-2 [9]: 7
SC.Exp. 2-1 [9]: 7
SC.Exp. 2-2 [9]: 6
SC.Exp. Sum [9]: 29
AvgP [10]: 0
SC.Exp. 1-1 [10]: 0
SC.Exp. 1-2 [10]: 1
SC.Exp. 2-1 [10]: 0
SC.Exp. 2-2 [10]: 0
SC.Exp. Sum [10]: 1
AvgP [11]: 0.4343
SC.Exp. 1-1 [11]: 3
SC.Exp. 1-2 [11]: 3
SC.Exp. 2-1 [11]: 0
SC.Exp. 2-2 [11]: 0
Sum (SC.Exp.) [11]: 6
AvgP [12]: 0
SC.Exp. 1-1 [12]: 4
SC.Exp. 1-2 [12]: 8
SC.Exp. 2-1 [12]: 4
SC.Exp. 2-2 [12]: 6
SC.Exp. Sum [12]: 22
